What was measured:
Format in all cases: functional
[1] = tested on: Echinochloa crus-galli; test: Herbicidal activity against Echinochloa crus-galli (barnyard grass) assessed as reduction of radical growth in dark conditions at 100 ug/ml treated twice; settings: for inhibition of growth at 100 µg/mL: Echinochloa crus-galli, read-out: GI
[2] = tested on: Echinochloa crus-galli; test: Herbicidal activity against Echinochloa crus-galli (barnyard grass) assessed as reduction of radical growth in dark conditions at 10 ug/ml treated twice; settings: for inhibition of growth at 10 µg/mL: Echinochloa crus-galli, read-out: GI
[3] = tested on: Echinochloa crus-galli; test: Herbicidal activity against Echinochloa crus-galli (barnyard grass) assessed as reduction of seedling height growth in light conditions at 100 ug/ml treated twice; settings: for inhibition of growth at 100 µg/mL: Echinochloa crus-galli, read-out: GI
[4] = tested on: Echinochloa crus-galli; test: Herbicidal activity against Echinochloa crus-galli (barnyard grass) assessed as reduction of seedling height growth in light conditions at 10 ug/ml treated twice; settings: read-out: GI

Row | Structure (SMILES) | inhibition of growth at 100 µg/mL [1] [%] | inhibition of growth at 10 µg/mL [2] [%] | inhibition of growth at 100 µg/mL [3] [%] | inhibition of growth at 10 µg/mL [4] [%] | growth inhibition (GI) [2] [%] | growth inhibition (GI) [3] [%] | growth inhibition (GI) [1] [%]
1 | O=C1c2ccc([N+](=O)[O-])cc2C(=O)C1C(C[N+](=O)[O-])c1ccc(Cl)cc1Cl (centres undefined) | 10 | 5 | 0 | 0 |  |  | 
2 | O=C1c2ccc([N+](=O)[O-])cc2C(=O)C1C(C[N+](=O)[O-])c1cccc(Cl)c1 (centres undefined) | 0 | 0 | 0 | 0 |  |  | 
3 | O=C1c2ccc([N+](=O)[O-])cc2C(=O)C1C(C[N+](=O)[O-])c1ccccc1Cl (centres undefined) | 59.6 | 0 | 93.2 | 0 |  |  | 
4 | O=C1c2ccc([N+](=O)[O-])cc2C(=O)C1C(C[N+](=O)[O-])c1ccc(Cl)cc1 (racemic) | 10 |  |  |  | 5 | 55.5 | 
5 | O=C1c2ccc([N+](=O)[O-])cc2C(=O)C1C(C[N+](=O)[O-])c1ccc(F)cc1 (racemic) | 0 | 0 |  |  |  | 64.1 | 
6 | O=C1c2ccc([N+](=O)[O-])cc2C(=O)C1C(C[N+](=O)[O-])c1ccc(F)cc1 (stereo in doubt; 4bd) |  |  |  | 0 |  | 22 | 
7 | O=C1c2ccc([N+](=O)[O-])cc2C(=O)C1C(C[N+](=O)[O-])c1ccc(Cl)cc1 (stereo in doubt; 4be) |  |  |  | 0 | 0 | 9.7 | 5

— ChEMBL document CHEMBL3045333, “Asymmetric aza-Michael additions of 4-nitrophthalimide to nitroalkenes and preliminary study of the products for herbicidal activities” (2013)
